Values quoted from earlier work, collected in patent publication US20240139350A1, “RADIOACTIVELY LABELED LIGAND FOR FIBROBLAST ACTIVATION PROTEIN-ALPHA IMAGING AGENT AND PREPARATION METHOD THEREFOR” (FIVE ELEVEN PHARMA, INC, priority 2021, published 2024).

Columns and labels:
FAP-positive tumor = settings: after 24 hours, relative to FAPI-02
[1] = coordination to Ga^3+
murine FAP = target: T1, murine FAP (Mus musculus, UniProt P97321); settings: human embryonic kidney cells expressing mouse FAP
T1 construct: expressed in transfected cells; host or cells: human embryonic kidney cells
T1 sequence (P97321 1-761): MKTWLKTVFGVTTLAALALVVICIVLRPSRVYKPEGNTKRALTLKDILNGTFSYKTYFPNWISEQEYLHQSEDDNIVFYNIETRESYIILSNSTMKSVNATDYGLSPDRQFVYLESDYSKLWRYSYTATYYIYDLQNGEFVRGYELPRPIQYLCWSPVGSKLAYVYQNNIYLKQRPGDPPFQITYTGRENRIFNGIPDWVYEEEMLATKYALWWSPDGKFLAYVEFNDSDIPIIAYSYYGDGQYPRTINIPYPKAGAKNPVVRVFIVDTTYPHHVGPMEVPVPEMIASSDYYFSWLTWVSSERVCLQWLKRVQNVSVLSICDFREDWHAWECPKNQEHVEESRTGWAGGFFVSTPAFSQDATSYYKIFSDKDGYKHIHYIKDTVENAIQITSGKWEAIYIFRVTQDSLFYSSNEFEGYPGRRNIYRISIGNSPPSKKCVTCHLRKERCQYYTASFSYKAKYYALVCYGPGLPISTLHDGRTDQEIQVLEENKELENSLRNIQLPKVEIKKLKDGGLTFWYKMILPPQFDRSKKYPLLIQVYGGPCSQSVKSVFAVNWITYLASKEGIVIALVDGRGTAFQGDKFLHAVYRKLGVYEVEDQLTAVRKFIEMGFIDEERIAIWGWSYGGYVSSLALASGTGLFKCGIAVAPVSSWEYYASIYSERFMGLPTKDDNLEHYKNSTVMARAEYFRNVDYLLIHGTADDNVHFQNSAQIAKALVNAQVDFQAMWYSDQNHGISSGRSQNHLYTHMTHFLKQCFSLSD

[2] = target: T2, dipeptidyl peptidase 4 (CD26) (Homo sapiens, UniProt P27487); settings: human embryonic kidney cells transfected with CD26
T2 construct: expressed in transfected cells; host or cells: human embryonic kidney cells
T2 sequence (P27487 whole entry, species assumed): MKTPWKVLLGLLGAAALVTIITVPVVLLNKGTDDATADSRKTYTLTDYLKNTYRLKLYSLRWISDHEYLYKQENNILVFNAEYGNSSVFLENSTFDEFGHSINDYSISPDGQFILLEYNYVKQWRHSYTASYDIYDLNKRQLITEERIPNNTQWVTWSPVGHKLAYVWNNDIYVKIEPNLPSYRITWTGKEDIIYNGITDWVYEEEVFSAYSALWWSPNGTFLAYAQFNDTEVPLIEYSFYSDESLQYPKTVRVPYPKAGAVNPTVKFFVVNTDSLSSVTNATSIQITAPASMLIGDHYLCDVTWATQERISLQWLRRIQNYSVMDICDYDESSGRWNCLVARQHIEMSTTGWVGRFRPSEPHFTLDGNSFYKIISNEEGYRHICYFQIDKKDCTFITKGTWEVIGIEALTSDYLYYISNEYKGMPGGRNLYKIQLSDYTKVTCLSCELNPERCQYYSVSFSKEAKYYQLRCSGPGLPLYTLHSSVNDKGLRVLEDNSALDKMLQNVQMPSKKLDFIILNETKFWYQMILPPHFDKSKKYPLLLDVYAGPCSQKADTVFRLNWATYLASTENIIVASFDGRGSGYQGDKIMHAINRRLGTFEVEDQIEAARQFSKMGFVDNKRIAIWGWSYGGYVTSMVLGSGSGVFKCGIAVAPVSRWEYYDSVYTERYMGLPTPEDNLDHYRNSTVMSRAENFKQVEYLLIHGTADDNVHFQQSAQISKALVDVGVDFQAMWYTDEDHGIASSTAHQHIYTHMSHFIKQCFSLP

Row | SMILES | binding to murine FAP (murine FAP) | thermodynamically stable constant log KML [1] | further results
1 | N#C[C@@H]1CC(F)(F)CN1C(=O)CNC(=O)c1ccnc2ccc(OCCCN3CCN(C(=O)CN4CCN(CC(=O)O)CCN(CC(=O)O)CCN(CC(=O)O)CC4)CC3)cc12 (177Lu complex, metal not drawn) [FAPI-04] |  |  | effective tumor uptake higher than FAPI-02 (FAP-positive tumor): 100%
2 | CC1(N(CC(=O)O)CC(=O)O)CN(CC(=O)O)CCN(CC(=O)O)C1 [AAZTA] |  | 22.18 | 
3 | O=C(O)CN1CCN(CC(=O)O)CCN(CC(=O)O)CCN(CC(=O)O)CC1 [DOTA] |  | 21.3 | 
4 | O=C(O)CN1CCN(CC(=O)O)CCN(CC(=O)O)CC1 [NOTA] |  | 31.0 | 

More lines, main results first:

Row | binding to murine FAP (murine FAP) | SMILES | thermodynamically stable constant log KML [1] | further results
5 | strong binding | N#C[C@@H]1CC(F)(F)CN1C(=O)CNC(=O)c1ccnc2ccc(OCCCN3CCN(C(=O)CN4CCN(CC(=O)O)CCN(CC(=O)O)CCN(CC(=O)O)CC4)CC3)cc12 [FAPI-04] |  | binding to CD26 [2]: did not bind
6 | strong binding | N#C[C@@H]1CCCN1C(=O)CNC(=O)c1ccnc2ccc(OCCCN3CCN(C(=O)CN4CCN(CC(=O)O)CCN(CC(=O)O)CCN(CC(=O)O)CC4)CC3)cc12 [FAPI-02] |  | 
